Literature values as cited in patent US20130109746A1, “COMPOSITION COMPRISING ELLAGIC ACID AND A PARTICULAR CATIONIC SURFACTANT, AND COSMETIC USE THEREOF” (L'OREAL S.A., priority 2010, published 2013).

Details: in water and in the solvents and oils commonly used in cosmetic compositions

- solubility: very sparingly soluble
Structure (SMILES): O=c1oc2c(O)c(O)cc3c(=O)oc4c(O)c(O)cc1c4c23 [ellagic acid, 2,3,7,8-tetrahydroxy(1)benzopyrano(5,4,3-cde)(1)benzopyran-5,10-dione]
